Source: patent publication US9440930B2, “Substituted bicyclic dihydropyrimidinones and their use as inhibitors of neutrophil elastase activity” (Boehringer Ingelheim International GmbH, priority 2014, dated 2016)
Converted amounts (≈) assume the structure as drawn.

Legend:
[1] = biological target: T1, Human neutrophil elastase (Homo sapiens, UniProt P08246); assay: Human Neutrophil Elastase Assay; assay type: biochemical; conditions: substrate MeOSuc-Ala-Ala-Pro-Val-AMC 250 μM, pH 7.5, room temperature
T1 construct: purchased Calbiochem 324681
T1 sequence (P08246 30-247 limits assumed): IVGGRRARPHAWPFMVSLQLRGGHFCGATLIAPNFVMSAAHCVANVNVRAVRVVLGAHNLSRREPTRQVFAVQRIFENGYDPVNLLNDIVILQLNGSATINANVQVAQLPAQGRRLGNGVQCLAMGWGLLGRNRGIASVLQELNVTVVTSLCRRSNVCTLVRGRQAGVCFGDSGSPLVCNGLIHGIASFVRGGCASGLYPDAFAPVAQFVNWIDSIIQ
Excerpt: Human Neutrophil Elastase Assay

[2] = Metabolic stability with human liver microsomes; assay type: in vitro ADME; conditions: pooled human liver microsomes, pH 7.6; human liver microsomes 1 mg/ml, 1 μM compound, 37° C., NADPH; read-out: t1/2 INVITRO
[3] = biological target: T2, neutrophil elastase in human plasma (Homo sapiens, UniProt P08246); assay: Neutrophil elastase inhibitory activity in human plasma; assay type: biochemical; conditions: zymosan-stimulated human plasma, substrate MeOSuc-Ala-Ala-Pro-Val-AMC 250 μM
T2 construct: The stimulated blood is centrifuged to generate the neutrophil elastase enriched plasma; from tissue; host or cells: plasma from zymosan-stimulated citrated whole blood of healthy human donors
T2 sequence (P08246 30-267): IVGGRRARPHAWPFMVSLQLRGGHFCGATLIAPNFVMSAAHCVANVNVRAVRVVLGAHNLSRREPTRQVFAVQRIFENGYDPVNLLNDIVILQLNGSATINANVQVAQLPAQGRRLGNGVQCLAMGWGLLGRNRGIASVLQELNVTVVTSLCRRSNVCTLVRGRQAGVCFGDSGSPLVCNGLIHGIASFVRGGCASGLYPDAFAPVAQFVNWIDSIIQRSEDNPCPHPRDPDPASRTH
Method: Assay for the Determination of Neutrophil Elastase Inhibitory Activity in Human Plasma
Citrated blood from human healthy donors is mixed with zymosan suspension and incubated at room temperature. This leads to the stimulation of neutrophils and the release of neutrophil elastase into the plasma. The stimulated blood is centrifuged to generate the neutrophil elastase enriched plasma.
• A single 45 ml blood sample is taken into a 50 ml tube containing citrate (3.13%, 5 mL) and the tube is gently inverted 4 times. • Immediately after blood sampling, zymosan working solution (5 mL) is added. • After the addition of zymosan working solution, the tubes are capped, mixed gently and incubated at 22° C. for 15 min on a shaker at 20 rpm. • Make 10 ml aliquots after the incubation time. • Centrifuge the 15 ml tubes at 800 g for 15 min at 4° C. in a Jouan centrifuge. • Harvest the plasma and make 1-5 ml aliquots. • Store the plasma at −80° C.
A dose response curve is generated to calculate the EC50 of the inhibitor. The analysis of the data is performed by the calculation of the percentage of fluorescence in the presence of the test compound compared to the fluorescence of the vehicle control after subtracting the background fluorescence: An inhibitor of the neutrophil elastase enzyme will give values between 100% control (no inhibition) and 0% control (complete inhibition).

[4] = Aqueous solubility; assay type: physicochemical; conditions: McIlvaine buffer pH 6.8 containing 2.5% DMSO, kinetic from dmso stock, McIlvaine buffer pH 6.8, 2.5% DMSO, 24 h shaking
Method: Assay for Determination of Aqueous Solubility
Starting from a 10 min DMSO stock solution, aliquots are diluted with acetonitrile/water (1/1) and McIlvaine buffer pH 6.8, respectively. After 24 h of shaking, the solutions or suspensions are filtered and analyzed by LC-UV. The amount dissolved in buffer is compared to the amount dissolved in the acetonitrile/water (1/1) solution. Solubility is measured from 0.001 to 0.125 mg/ml at a DMSO concentration of 2.5%. If more than 90% of the compound is dissolved in buffer, the value is marked with “>”.

[5] = Drug transport across human Caco-2 cells; assay type: in vitro ADME; conditions: pH 7.2, 37° C.; for Papp A→B at 10 µM: apical-to-basal, read-out: PEAB; for Papp B→A at 10 µM: basal-to-apical, read-out: PEBA
Excerpt: Assay for Determination of Drug Transport Across Human Caco-2 Cells
The assay provides information on the potential of a compound to pass the cell membrane, on the extent of oral absorption as well as on whether the compound is actively transported by uptake and/or efflux transporters. For the measurement of permeability across polarized, confluent human cancer colon carcinoma cells 2 (Caco-2) cell monolayers grown on permeable filter supports are used as the in vitro absorption model.
Apparent permeability coefficients (PE) of the compounds across the Caco-2 monolayers are measured (pH 7.2, 37° C.) in apical-to-basal (AB) (absorptive) and basal-to-apical (BA) (secretory) transport direction. AB permeability (PEAB) represents drug absorption from the intestine into the blood and BA permeability (PEBA) drug secretion from the blood back into the intestine via both passive permeability as well as active transport mechanisms mediated by efflux and uptake transporters that are expressed on the Caco-2 cells. The compounds are assigned to permeability/absorption classes by comparison of the AB permeabilities with the AB permeabilities of reference compounds with known in vitro permeability and oral absorption in the human. Identical or similar permeabilities in both transport directions indicate passive permeation, vectorial permeability points to additional active transport mechanisms. […] Active transport is concentration-dependently saturable.
Caco-2 cells (1-2*10^5 cells/cm^2 area) are seeded on filter inserts (Costar transwell polycarbonate or PET filters, 0.4 μm pore size) and cultured (DMEM) for 10 to 25 days. Compounds are dissolved in appropriate solvent (like DMSO, 1-20 min stock solutions). Stock solutions are diluted with HTP-4 buffer (128.13 min NaCl, 5.36 min KCl, 1 mM MgSO4, 1.8 min CaCl2, 4.17 min NaHCO3, 1.19 min Na2HPO4×7H2O, 0.41 mM NaH2PO4×H2O, 15 min HEPES, 20 min glucose, pH 7.2) to prepare the transport solutions (typically 10 μM compound, final DMSO<=0.5%). The transport solution (TL) is applied to the apical or basolateral donor side for measuring A-B or B-A permeability (3 filter replicates), respectively. The receiver side contains HTP-4 buffer supplemented with 2% BSA. Samples are collected at the start and end of experiment from the donor and at various time intervals for up to 2 hours also from the receiver side for concentration measurement by LC-MS/MS or scintillation counting. Sampled receiver volumes are replaced with fresh receiver solution.

SMILES: CS(=O)(=O)c1cc(C#N)ccc1C1C2=C(CCCC2=O)N(c2cccc(C(F)(F)F)c2)C(=O)N1CCO (stereo not drawn) [Example 6, 4-[3-(2-Hydroxy-ethyl)-2,5-dioxo-1-(3-trifluoromethyl-phenyl)-1,2,3,4,5,6,7,8-octahydro-quinazolin-4-yl]-3-methanesulfonyl-benzonitrile]
- IC50 [1]: < 1 nM
- half-life at 1 μM [2]: > 2.17 h
- EC50 [3]: 1 nM
- solubility at 24 h [4]: 0.072 mg/mL (≈ 135 µM)
- Papp A→B at 10 µM [5]: 39 nm/s
- Papp B→A at 10 µM [5]: 680 nm/s

SMILES: CN1C(=O)N(c2cccc(C(F)(F)F)c2)C2=C(C(=O)CCC2)C1c1ccc(C#N)cc1S(=O)(=O)CCO (stereo not drawn) [Example 4.3]
- IC50 [1]: 1.1 nM
- half-life at 1 μM [2]: 2.17 h
- EC50 [3]: 2 nM
- solubility at 24 h [4]: 0.062 mg/mL (≈ 116 µM)
- Papp A→B at 10 µM [5]: 100 nm/s
- Papp B→A at 10 µM [5]: 1200 nm/s

SMILES: CN1C(=O)N(c2cccc(C(F)(F)F)c2)C2=C(C(=O)CCC2)C1c1ccc(C#N)cc1[S+](C)[O-] (single isomer, unassigned) [Example 2.1A, 3-Methanesulfinyl-4-[3-methyl-2,5-dioxo-1-(3-trifluoromethyl-phenyl)-1,2,3,4,5,6,7,8-octahydro-quinazolin-4-yl]-benzonitrile]
- IC50 [1]: < 1 nM
- half-life at 1 μM [2]: 0.967 h
- EC50 [3]: < 1 nM
- solubility at 24 h [4]: 0.065 mg/mL (≈ 133 µM)
- Papp A→B at 10 µM [5]: 41 nm/s
- Papp B→A at 10 µM [5]: 580 nm/s
